Active and inactive are the calls of the source.
Columns and labels:
[1] = Dd2 malaria parasite growth inhibition potency – SYBR Green, dry powder samples, dose response (AID 1159566); assay type: functional, cell-based;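 note: potency for growth inhibition with lower SYBR green DNA signal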
[2] = growth inhibition of PfATP4-mutant resistant parasites – NITD609-resistant line, SYBR Green, dry powder, dose response (AID 1159571); assay type: functional, cell-based;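 note: parasites synchronized at ring stage by sorbitol before testing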
[3] = toxicity to human HepG2 hepatoma cells – cell-based, plate reader, dry powder samples, cytotoxicity control, dose response (AID 1159569); assay type: functional;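 note: inhibitor potency with signal falling toward the positive control level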
[4] = growth inhibition of yeast DHODH-expressing 3D7 parasites – SYBR Green, dry powder samples, dose response (AID 1159570); assay type: functional, cell-based;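 note: parasite growth measured after 72 hours of compound exposure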
[5] = P. falciparum Dd2 growth inhibitors, dose response, SYBR Green, cherry-picked samples (AID 1159567); assay type: functional, cell-based
[6] = HIV-1 Vif–A3G interaction blockers – biochemical, TR-FRET, GST-Vif 1-94, biotin-A3G peptide, dose response retest, primary screen (AID 1117319); assay type: functional;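 note: TR-FRET signal of purified GST-Vif binding a biotinylated A3G peptide; inhibitors lower the FRET signal by blocking Vif and A3G binding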
[7] = general mammalian cell viability loss – inhibitor set, cherry-pick, set 2, cytotoxicity control for miR-122 modulator project, dose response (AID 720697); assay type: functional, cell-based
[8] = target: T1, Oxysterols receptor LXR-beta (Homo sapiens, UniProt P55055); assay type: functional, cell-based
T1 sequence (P55055 whole entry): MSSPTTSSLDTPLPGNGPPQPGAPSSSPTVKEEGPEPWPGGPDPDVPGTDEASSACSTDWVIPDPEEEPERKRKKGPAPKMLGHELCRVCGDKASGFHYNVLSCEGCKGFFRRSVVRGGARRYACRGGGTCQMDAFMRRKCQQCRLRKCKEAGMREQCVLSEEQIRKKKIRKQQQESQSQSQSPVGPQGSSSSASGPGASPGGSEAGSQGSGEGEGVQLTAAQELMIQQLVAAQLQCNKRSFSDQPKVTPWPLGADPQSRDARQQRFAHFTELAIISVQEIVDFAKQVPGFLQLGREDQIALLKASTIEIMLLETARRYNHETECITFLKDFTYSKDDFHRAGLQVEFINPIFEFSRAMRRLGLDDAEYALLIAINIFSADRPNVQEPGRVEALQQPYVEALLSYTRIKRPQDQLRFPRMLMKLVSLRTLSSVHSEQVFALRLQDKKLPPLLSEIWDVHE

cells [9] = assay: cells
[10] = target: T2, Heat shock factor protein 1 (Mus musculus, UniProt P38532); assay: enhancement of HSF1-driven luciferase signal – cell-based, NIH3T3, luminescence, dose retest, confirmation (AID 435004); assay type: functional;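 note: stress induced by proteasome inhibitor MG132 added 30 min after compound; luciferase reporter driven by HSF1 response element in NIH3T3 cells; actives raise luminescence as potentiators of the MG132 stress response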
T2 sequence (P38532 whole entry): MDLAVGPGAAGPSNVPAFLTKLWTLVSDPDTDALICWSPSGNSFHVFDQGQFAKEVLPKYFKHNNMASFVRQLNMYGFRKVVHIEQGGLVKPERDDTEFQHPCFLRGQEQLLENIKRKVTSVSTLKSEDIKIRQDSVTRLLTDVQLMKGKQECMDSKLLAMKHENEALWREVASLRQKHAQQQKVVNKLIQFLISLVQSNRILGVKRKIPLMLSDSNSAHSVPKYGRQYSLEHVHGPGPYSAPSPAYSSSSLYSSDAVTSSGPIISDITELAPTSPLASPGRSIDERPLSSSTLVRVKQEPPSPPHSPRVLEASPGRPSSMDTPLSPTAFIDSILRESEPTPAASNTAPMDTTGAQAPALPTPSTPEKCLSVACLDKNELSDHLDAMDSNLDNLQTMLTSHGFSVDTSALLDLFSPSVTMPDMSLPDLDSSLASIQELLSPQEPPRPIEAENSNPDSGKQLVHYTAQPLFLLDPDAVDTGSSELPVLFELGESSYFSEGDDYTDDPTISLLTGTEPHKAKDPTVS

[11] = Luminescence-based cell-based high throughput dose response assay to identify activators of the DAF-12 from the parasite S. stercoralis (ssDAF-12).; assay type: functional
[12] = target: T1, Oxysterols receptor LXR-beta; assay: LXR agonists, Gal4 luciferase reporter, dose response, counter-screen for ssDAF-12 agonist project, cell-based, luminescence, HEK293, S. stercoralis campaign (AID 720737); assay type: functional; settings: read-out: IC50 (the source's name)
[13] = blockers of bursicon-stimulated LGR2 cAMP reporter – cell-based, HEK293, CRE-luciferase reporter, cherry pick, set 2, dose response (AID 743343); assay type: functional;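 note: transfected cells were stimulated with diluted bursicon conditioned medium after compound addition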
[14] = A549 cell cytotoxicity, dose response, cytotoxicity control, plate reader, cherry-pick, antagonist series (AID 743412); assay type: functional, cell-based
[15] = target: T1, Oxysterols receptor LXR-beta; assay type: functional, cell-based; remark: listed apart in the source
[16] = target: T3, Calpain-2 catalytic subunit (Sus scrofa, UniProt P43367); assay: m-calpain protease blockers, concentration series – biochemical, fluorogenic peptide substrate, dose response (AID 1420); assay type: functional
T3 sequence (P43367 whole entry): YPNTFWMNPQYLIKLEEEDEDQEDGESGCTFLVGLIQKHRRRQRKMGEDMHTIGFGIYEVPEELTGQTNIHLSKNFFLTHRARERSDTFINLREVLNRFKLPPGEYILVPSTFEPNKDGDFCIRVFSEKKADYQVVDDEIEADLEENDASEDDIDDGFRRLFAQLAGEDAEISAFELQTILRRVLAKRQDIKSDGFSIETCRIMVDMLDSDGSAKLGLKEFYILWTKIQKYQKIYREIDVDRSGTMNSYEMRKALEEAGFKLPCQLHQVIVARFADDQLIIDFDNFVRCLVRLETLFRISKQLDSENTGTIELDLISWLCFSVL

[17] = target: T4, Nuclear receptor subfamily 0 group B member 1 (Homo sapiens, UniProt P51843); assay type: functional, cell-based;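 note: HEK293T cells transfected with SF-1 and DAX-1 plus StAR promoter luciferase reporter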
T4 sequence (P51843 whole entry): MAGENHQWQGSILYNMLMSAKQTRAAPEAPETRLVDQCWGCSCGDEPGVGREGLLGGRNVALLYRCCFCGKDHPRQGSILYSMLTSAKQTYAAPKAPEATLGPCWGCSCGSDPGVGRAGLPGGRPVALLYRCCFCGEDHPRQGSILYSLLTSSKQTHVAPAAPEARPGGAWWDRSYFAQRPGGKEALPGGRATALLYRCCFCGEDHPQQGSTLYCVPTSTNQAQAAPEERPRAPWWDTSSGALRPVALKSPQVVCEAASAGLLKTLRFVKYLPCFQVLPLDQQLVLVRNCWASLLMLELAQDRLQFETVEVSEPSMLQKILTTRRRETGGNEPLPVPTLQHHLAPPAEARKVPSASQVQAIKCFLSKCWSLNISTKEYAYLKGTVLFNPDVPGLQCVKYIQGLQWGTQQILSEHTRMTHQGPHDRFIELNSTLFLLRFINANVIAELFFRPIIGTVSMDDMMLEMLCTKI

cells [18] = assay type: functional, cell-based
[19] = toxicity to human hepatoma HepG2 cells – cell-based, cherry-picked samples, cytotoxicity control, dose response (AID 1159577); assay type: functional

## COCC(=O)Nc1ccc2c(c1)C(=O)N(C)C[C@H](OC)[C@H](C)CN(Cc1cc(F)ccc1F)[C@@H](C)CO2
[1]
  AC50: 1.18 µM (active)
[2]
  AC50: 1.84 µM (active)
[3]
  AC50: > 100 µM (inactive)
[4]
  AC50: 13.1 µM (active)
[5]
  AC50: 2.25 µM (active)

## O=C(Cn1nc(-c2ccc(Cl)cc2)ccc1=O)NCc1ccc2c(c1)OCO2
[6]
  IC50: > 100 µM (active)

## CCn1nnnc1SCC(=O)Nc1nnc(C(C)C)s1
[7]
  AC50: 7.36 µM (active)

## CC(C)c1ccc(-n2cnn(-c3ncccc3[N+](=O)[O-])c2=O)cc1
[8]
  EC50: > 67.5 µM (inactive)
Cells [9]
  EC50: > 67.5 µM (inactive)
[10]
  EC50: > 260 µM (inactive)

## O=c1[nH][nH]c2cc(=O)n(-c3cccc(C(F)(F)F)c3)nc12
[11]
  IC50: > 67.5 µM (inactive)
[12]
  EC50: > 67.5 µM (inactive)
[10]
  EC50: > 260 µM (inactive)

## NCC[C@H]1CC[C@H](NS(=O)(=O)Cc2ccccc2)[C@@H](CO)O1
[13]
  AC50: 40.7 µM (active)
[14]
  AC50: > 52 µM (inactive)

## Cc1cc(N/C=C/C(=O)c2cccs2)ccc1F
[8]
  EC50: > 67.6 µM (inactive)
Cells [9]
  EC50: > 67.6 µM (inactive)

## Oc1ccccc1-c1cc(-c2ccc3c(c2)OCCO3)[nH]n1
[15]
  EC50: > 67.6 µM (inactive)
[16]
  IC50: > 50 µM (not active)
[17]
  IC50: 17.6 µM (inactive)
Cells [18]
  IC50: > 67.6 µM (inactive)

## COc1ccc(-c2nc3ccccn3c2Cl)cc1
[11]
  IC50: > 67.6 µM (inactive)
[12]
  EC50: > 67.6 µM (inactive)

## N#C[C@H]1[C@H](c2ccc(-c3cccc(F)c3)cc2)[C@H](CO)N1C(=O)c1cccnc1
[1]
  AC50: 0.641 µM (active)
[2]
  AC50: 0.69 µM (active)
[3]
  AC50: 76.8 µM (active)
[19]
  AC50: > 39 µM (inactive)
[4]
  AC50: 1.33 µM (active)
[5]
  AC50: 1.16 µM (active)

Source: ChEMBL document CHEMBL1201862, “PubChem BioAssay data set” (2004)
